Measurements taken from the NIST ThermoML archive (doi:10.1016/j.jct.2019.07.013).
± gives the expanded uncertainty stated by the source.

Details: for mass density: 100 kPa, Vibrating tube method; for mass density / electrical conductivity: Liquid; for electrical conductivity: 101.33 kPa, Direct current cell with electrodes; for Glass transition temperature: DSC

| Structure (SMILES) | mass density (283.15 K) | mass density (288.15 K) | mass density (293.15 K) | electrical conductivity (293.15 K) | mass density (298.15 K) | electrical conductivity (298.15 K) | mass density (303.15 K) | electrical conductivity (303.15 K) | mass density (308.15 K) | electrical conductivity (308.15 K) | mass density (313.15 K) | electrical conductivity (313.15 K) | mass density (318.15 K) | electrical conductivity (318.15 K) | mass density (323.15 K) | electrical conductivity (323.15 K) | Glass transition temperature | Normal melting temperature (Crystal, DTA) |
| --- | --- | --- | --- | --- | --- | --- | --- | --- | --- | --- | --- | --- | --- | --- | --- | --- | --- | --- |
| C=CCCn1cc[n+](CCCC)c1.[Br-] [1-(3-butenyl)-3-butylimidazolium bromide] | 1229.25 ± 6.8 kg/m3 | 1225.9 ± 6.7 kg/m3 | 1222.43 ± 6.7 kg/m3 | 0.00255 ± 0.00018 S/m | 1218.74 ± 6.7 kg/m3 | 0.00445 ± 0.00031 S/m | 1214.96 ± 6.7 kg/m3 | 0.00733 ± 0.00051 S/m | 1211.48 ± 6.7 kg/m3 | 0.0114 ± 0.0008 S/m | 1207.96 ± 6.6 kg/m3 | 0.0175 ± 0.0012 S/m | 1204.4 ± 6.6 kg/m3 | 0.0256 ± 0.0018 S/m | 1200.81 ± 6.6 kg/m3 | 0.0366 ± 0.0026 S/m | -49.00 ± 1.2 °C |  |
| O [water] | 999.7 ± 0.05 kg/m3 | 999.05 ± 0.05 kg/m3 |  |  |  |  |  |  |  |  | 992.31 ± 0.06 kg/m3 |  | 990.42 ± 0.06 kg/m3 |  | 988.3 ± 0.06 kg/m3 |  |  |  |
| CCCCCC[n+]1ccn(C)c1.O=S(=O)([N-]S(=O)(=O)C(F)(F)F)C(F)(F)F | 1386 ± 5 kg/m3 | 1381.41 ± 5 kg/m3 | 1376.82 ± 5 kg/m3 |  | 1371.8 ± 5 kg/m3 |  | 1367.65 ± 5 kg/m3 |  | 1363.1 ± 5 kg/m3 |  | 1357.5 ± 5 kg/m3 |  | 1352.61 ± 5 kg/m3 |  | 1349.44 ± 5 kg/m3 |  |  |  |
| C=CCCn1cc[n+](C)c1.[Br-] [1-(3-butenyl)-3-methylimidazolium bromide] | 1354.24 ± 15 kg/m3 | 1350.42 ± 15 kg/m3 | 1346.67 ± 14 kg/m3 | 0.0126 ± 0.00089 S/m | 1343.07 ± 14 kg/m3 | 0.0214 ± 0.0015 S/m | 1339.41 ± 14 kg/m3 | 0.0343 ± 0.0024 S/m | 1335.7 ± 14 kg/m3 | 0.0522 ± 0.0037 S/m | 1331.9 ± 14 kg/m3 | 0.0772 ± 0.0054 S/m | 1328.14 ± 14 kg/m3 | 0.116 ± 0.0081 S/m | 1324.34 ± 14 kg/m3 | 0.162 ± 0.011 S/m | -49.60 ± 1.2 °C |  |
| C=CCCn1cc[n+](CC)c1.[Br-] [1-(3-butenyl)-3-ethylimidazolium bromide] | 1305.11 ± 5.7 kg/m3 | 1301.34 ± 5.7 kg/m3 | 1297.64 ± 5.7 kg/m3 | 0.014 ± 0.00098 S/m | 1294.11 ± 5.6 kg/m3 | 0.0226 ± 0.0016 S/m | 1290.54 ± 5.6 kg/m3 | 0.0353 ± 0.0025 S/m | 1286.92 ± 5.6 kg/m3 | 0.0524 ± 0.0037 S/m | 1283.26 ± 5.6 kg/m3 | 0.0747 ± 0.0052 S/m | 1279.57 ± 5.6 kg/m3 | 0.12 ± 0.0084 S/m | 1275.88 ± 5.6 kg/m3 | 0.162 ± 0.011 S/m | -63.48 ± 1.2 °C | 70.68 ± 1.1 °C |
